In brackets after ≈: the same amount, converted by molar mass. Values belong to the molecule of their own block, whether it stands above or below them.
How the values were obtained:
Type in all cases: functional
Escherichia coli [1] = experiment: Antibacterial activity against Escherichia coli MTCC 739 assessed as inhibition of bacterial growth incubated for 24 hrs by spectrophotometric assay
Escherichia coli [2] = experiment: Antibacterial activity against Escherichia coli MTCC 40 assessed as zone of inhibition incubated for 24 hrs by well-plate method
Staphylococcus aureus [3] = experiment: Antibacterial activity against Staphylococcus aureus MTCC 121 assessed as inhibition of bacterial growth incubated for 24 hrs by well-plate method
Escherichia coli [4] = experiment: Antibacterial activity against Escherichia coli MTCC 40 assessed as inhibition of bacterial growth incubated for 24 hrs by well-plate method
Staphylococcus aureus [5] = experiment: Antibacterial activity against Staphylococcus aureus MTCC 121 assessed as zone of inhibition incubated for 24 hrs by well-plate method
Staphylococcus aureus [6] = experiment: Antibacterial activity against Staphylococcus aureus ATCC 25923 assessed as zone of inhibition incubated for 24 hrs by paper disk method
Escherichia coli [7] = experiment: Antibacterial activity against Escherichia coli ATCC 25922 assessed as zone of inhibition incubated for 24 hrs by paper disk method
Pseudomonas aeruginosa [8] = experiment: Antibacterial activity against Pseudomonas aeruginosa ATCC 27853 assessed as zone of inhibition incubated for 24 hrs by paper disk method
Staphylococcus aureus [9] = experiment: Antibacterial activity against Staphylococcus aureus MTCC 740 assessed as zone of inhibition incubated overnight by Kirby-Bauer disc diffusion method
Escherichia coli [10] = experiment: Antibacterial activity against Escherichia coli MTCC 1586 assessed as zone of inhibition incubated overnight by Kirby-Bauer disc diffusion method
Staphylococcus aureus [11] = experiment: Antibacterial activity against Staphylococcus aureus ATCC-29213 assessed as inhibition of bacterial growth incubated for 16 hrs by agar-well diffusion assay
Staphylococcus aureus [12] = experiment: Antibacterial activity against Staphylococcus aureus MTCC 3160 assessed as inhibition of bacterial growth by broth micro dilution assay
Staphylococcus aureus [13] = experiment: Antibacterial activity against Staphylococcus aureus NCTC-7447 assessed as zone of inhibition incubated for 24 hrs by paper disk diffusion assay
Klebsiella pneumoniae = experiment: Antibacterial activity against Klebsiella pneumoniae assessed as zone of inhibition incubated for 24 hrs by disk diffusion assay
Escherichia coli [14] = experiment: Antibacterial activity against Escherichia coli assessed as inhibition of bacterial growth
Staphylococcus aureus [15] = experiment: Antibacterial activity against Staphylococcus aureus assessed as zone of inhibition incubated for 24 hrs by agar diffusion assay
Bacillus subtilis [16] = experiment: Antibacterial activity against Bacillus subtilis assessed as zone of inhibition incubated for 24 hrs by agar diffusion assay
Proteus vulgaris = experiment: Antibacterial activity against Proteus vulgaris assessed as zone of inhibition incubated for 24 hrs by agar diffusion assay
Bacillus cereus [17] = experiment: Antibacterial activity against Bacillus cereus MTCC 430 assessed as zone of inhibition incubated overnight by Kirby-Bauer disc diffusion method
Pseudomonas aeruginosa [18] = experiment: Antibacterial activity against Pseudomonas aeruginosa assessed as inhibition of bacterial growth incubated for 24 hrs by broth microdilution assay
Bacillus cereus [19] = experiment: Antibacterial activity against Bacillus cereus ATCC-14579 assessed as zone of inhibition incubated for 24 hrs by paper disk diffusion assay
Bacillus subtilis [20] = experiment: Antibacterial activity against Bacillus subtilis assessed as inhibition of bacterial growth relative to control
Escherichia coli [21] = experiment: Antibacterial activity against Escherichia coli assessed as inhibition of bacterial growth relative to control
Bacillus cereus [22] = experiment: Antibacterial activity against Bacillus cereus ATCC 10702 assessed as inhibition of bacterial growth incubated for 20 hrs by broth doubling dilution assay
[23] = tested on: Staphylococcus epidermidis; experiment: Antibacterial activity against Staphylococcus epidermidis ATCC 12228 assessed as inhibition of bacterial growth incubated for 20 hrs by broth doubling dilution assay
Micrococcus luteus = experiment: Antibacterial activity against Micrococcus luteus ATCC 9341 assessed as inhibition of bacterial growth incubated for 20 hrs by broth doubling dilution assay

MIC (Escherichia coli [1]): 12.5 µg/mL (≈ 25.8 µM)
Structure (SMILES): O=c1cc(OCc2cn(CN3CCN(c4ccc(F)cc4)CC3)c(=S)s2)c2ccccc2o1

Structure (SMILES): CN[C@@H]1[C@H](O[C@H]2[C@H](O[C@H]3[C@H](O)[C@@H](O)[C@H](N=C(N)N)[C@@H](O)[C@@H]3N=C(N)N)O[C@@H](C)[C@]2(O)C=O)O[C@@H](CO)[C@H](O)[C@H]1O [STREPTOMYCIN]
inhibition zone (IZ) (Escherichia coli [2]): 22 mm
MIC (Staphylococcus aureus [3]): 12.5 µg/mL (≈ 21.5 µM)
MIC (Escherichia coli [4]): 12.5 µg/mL (≈ 21.5 µM)
inhibition zone (IZ) (Staphylococcus aureus [5]): 20 mm

Structure (SMILES): COc1ccc(CNC(=O)COc2cc(=O)oc3ccccc23)c(OC)c1
inhibition zone (IZ) (Staphylococcus aureus [6]): 10 mm
inhibition zone (IZ) (Escherichia coli [7]): 13 mm
inhibition zone (IZ) (Pseudomonas aeruginosa [8]): 12 mm

Structure (SMILES): CC[N+](CC)(CC)CCCCCCCCNCc1cn(Cc2cc(=O)oc3c(O)c4c(cc23)CCC(C)(C)O4)nn1.[Br-]
inhibition zone (IZ) (Staphylococcus aureus [9]): 2 mm
inhibition zone (IZ) (Escherichia coli [10]): 2 mm

Structure (SMILES): O=c1oc2ccccc2cc1-c1nn(-c2ccccc2)cc1/C=N/Nc1nc(-c2ccccc2)cs1
inhibition zone (IZ) (Escherichia coli [2]): 19 mm

MIC (Staphylococcus aureus [11]): 2.5 µg/mL (≈ 4.89 µM)
Structure (SMILES): CC(C)(C)NC(=O)c1c(-c2ccccc2)nc(SCc2cc(=O)oc3ccc4ccccc4c23)[nH]c1=O

Structure (SMILES): Cc1cc(=O)oc2c1=CCC(Cl)C=2C1C(C#N)=C(N)Oc2c1c(=O)oc1ccccc21 (configuration not stated)
MIC (Staphylococcus aureus [12]): 0.8 µg/mL (≈ 1.84 µM)

Structure (SMILES): O=c1oc2ccccc2c(O)c1-c1cc[nH]n1
inhibition zone (IZ) (Staphylococcus aureus [13]): 10 mm

Structure (SMILES): COc1ccc(Nc2nnc(COc3ccc4c(C)cc(=O)oc4c3)s2)cc1
inhibition zone (IZ) (Klebsiella pneumoniae): 15 mm

Structure (SMILES): CC[N+](CC)(CC)CCCCCCNCc1cn(Cc2cc(=O)oc3cc4c(cc23)CCC(C)(C)O4)nn1.[Br-]
inhibition zone (IZ) (Staphylococcus aureus [9]): 12 mm
inhibition zone (IZ) (Escherichia coli [10]): 10 mm

MIC (Escherichia coli [14]): 6.25 µg/mL (≈ 15.9 µM)
Structure (SMILES): COc1ccc(C(=O)C(c2c(O)c3ccccc3oc2=O)N2CCCCC2)cc1 (configuration not stated)

MIC (Escherichia coli [1]): 12.5 µg/mL (≈ 25.8 µM)
Structure (SMILES): O=c1cc(OCc2cn(CN3CCN(c4ccccc4F)CC3)c(=S)s2)c2ccccc2o1

Structure (SMILES): O=C(/C=C/c1cc(/N=N\c2ccc(Cl)cc2)ccc1O)c1cc2ccccc2oc1=O
inhibition zone (IZ) (Staphylococcus aureus [15]): >17 mm
inhibition zone (IZ) (Bacillus subtilis [16]): >17 mm
inhibition zone (IZ) (Proteus vulgaris): >17 mm

Structure (SMILES): CC[N+](CC)(CC)CCCCCCCCCCCCNCc1cn(Cc2cc(=O)oc3cc4c(cc23)CCC(C)(C)O4)nn1.[Br-]
inhibition zone (IZ) (Bacillus cereus [17]): 24 mm
inhibition zone (IZ) (Staphylococcus aureus [9]): 6 mm
inhibition zone (IZ) (Escherichia coli [10]): 8 mm

MIC (Staphylococcus aureus [3]): 50 µg/mL (≈ 78.6 µM)
MIC (Escherichia coli [4]): 12.5 µg/mL (≈ 19.6 µM)
Structure (SMILES): O=c1oc2cc(Br)ccc2cc1-c1csc(N/N=C/c2cn(-c3ccccc3)nc2-c2cc3ccccc3oc2=O)n1
inhibition zone (IZ) (Escherichia coli [2]): 22 mm
inhibition zone (IZ) (Staphylococcus aureus [5]): 22 mm

MIC (Pseudomonas aeruginosa [18]): 98 µg/mL (≈ 231 µM)
Structure (SMILES): CO/N=C(\C(=O)N[C@@H]1C(=O)N2C(C(=O)O)=C(COC(N)=O)CS[C@H]12)c1ccco1 [CEFUROXIME]

Structure (SMILES): O=c1oc2ccccc2c(O)c1-c1ccn(-c2ccccc2)n1
inhibition zone (IZ) (Bacillus cereus [19]): 16 mm
inhibition zone (IZ) (Staphylococcus aureus [13]): 20 mm

Structure (SMILES): COC(=O)c1nnn(CC(=O)c2cc3cc(Cl)ccc3oc2=O)c1C(=O)OC
inhibition (INH) (Bacillus subtilis [20]): 83.3%
inhibition (INH) (Escherichia coli [21]): 83.3%

MIC (Bacillus cereus [22]): 2 µg/mL (≈ 4.99 µM)
MIC [23]: 1 µg/mL (≈ 2.5 µM)
MIC (Micrococcus luteus): 2 µg/mL (≈ 4.99 µM)
Structure (SMILES): Cc1c(O)c(C(=O)CCc2ccccc2)c2oc(=O)cc(-c3ccccc3)c2c1O
